We go through 16 compounds from patent publication US6846801B1, “Systemic administration of a therapeutic preparation” (AstraZeneca AB, priority 1993, dated 2005).

Data set [1] deals with rats. Briefly: Rat model: powder inhaled, blood glucose compared with insulin formulations without enhancer. For Effect: key: +: significant decrease in blood glucose level; (+): moderate decrease in blood glucose level; −: no or very small decrease in blood glucose level. The following applies: for improvement in absorption of insulin: in vivo model. It is filed as in vivo. How it is done: Each of the compounds listed in Table III was tested for its ability to enhance uptake of insulin, and thus affect blood glucose levels, in a rat model. Various forms of insulin were employed: recombinant or semisynthetic human or bovine. Each formulation was prepared as above, drying and processing the insulin/enhancer or insulin/enhancer/lactose solution to produce an inhalable powder.
The powder was administered to rats by inhalation, and the blood glucose levels of the rats were subsequently monitored. These levels were compared to the corresponding values obtained from rats which had inhaled insulin formulations without enhancer.

Data set [2] concerns CaCo-2 epithelial cell monolayer. The data set can be described thus: In vitro transport of insulin and markers across CaCo-2 epithelial cell monolayer. It is filed as in vitro ADME. The settings on record: 60 min, 37° C. An excerpt: A standard in vitro assay utilizing an epithelial cell line, CaCo-2 (available through the American Type Culture Collection (ATCC), Rockville, Md., USA), has been developed to assess the ability of various enhancer compounds to promote transport of insulin and other markers across an epithelial cell monolayer, as a model for the epithelial cell layer which functions in the lung to separate the alveolus from the pulmonary blood supply. In this assay, the enhancer and insulin or other marker are dissolved in aqueous solution at various proportions and/or concentrations, and applied to the apical side of the cell monolayer. After 60 min incubation at 37° C. and 95% RH (relative humidity), the amount of the marker on the basolateral side of the cells is determined: for example, by use of a radioactively labelled marker. […] This is true even when insulin is added to the enhancer/mannitol mixture (1:3 sodium caprate:insulin, by weight) (FIG. 9). This concentration of sodium caprate (16 mM) was also found to promote absorption of insulin across the cell monolayer. The amount of insulin which passed across the monolayer doubled in the presence of 16 mM sodium caprate, compared to the amount in the absence of any enhancer. […]

The mark [3] stands for this setting: rats, inhaled powder, Enhancer:Insulin:lactose 4:4:92.
Where [4] appears, read: rats, inhaled powder, Enhancer:Insulin:lactose 2:4:94.
[5] abbreviates: tested as enhancer in the method of the invention, animal (rat) model.
[6] abbreviates: rats, inhaled powder, Enhancer:Insulin:lactose 25:75:0.

Consider `CCCCCCCC/C=C\CCCCCCCC(=O)[O-].[K+]` [Potassium oleate], for which the Effect result in data set [1] (setting [3]) was “+”.
In the case of `CCCCCCCC(=O)OCC(COP(=O)([O-])OCC[N+](C)(C)C)OC(=O)CCCCCCC` (stereo not shown) [Dioctanoylphosphatidylcholine], the Effect entry in data set [1] (setting [4]) is given as “(+)”.
For Dimethyl-β-cyclodextrin, in data set [1] (rat, in vivo), the “performance as enhancer of insulin absorption in the lung (in words)” value (from here on “performance as enhancer”) is recorded as “absorption enhancing effect”. Further, in data set [1] (rats, inhaled powder, Enhancer:Insulin:lactose 75:25:0), the Effect result is recorded as “+”.
As to Lysophosphatidylcholine, in data set [1] (setting [3]), the Effect result is given as “+”. In addition, the “performance as enhancer” value in data set [1] (setting [5]) was “effective enhancer”.
For the compound Lysine caprate, in data set [1] (rats, inhaled powder, Enhancer:Insulin:lactose 35:65:0), the Effect entry is reported as “+”. Besides, the “performance as enhancer” value in data set [1] (setting [5]) was “effective”.
Turning to `C[C@H](CCC(=O)NCC(=O)[O-])[C@H]1CC[C@H]2[C@@H]3[C@H](O)C[C@@H]4C[C@H](O)CC[C@]4(C)[C@H]3C[C@H](O)[C@]12C.[Na+]` [Sodium glycocholate], the “performance as enhancer” value in data set [1] (rat, in vivo) is “effectively enhance insulin absorption in the lung”. Besides, in data set [1] (setting [3]), the Effect result is recorded as “+”.
For `CCCCCCCCCCCC(=O)[O-].[Na+]` [Sodium laurate], the Effect result in data set [1] (setting [6]) is reported as “(+)”. Besides, the “performance as enhancer” value in data set [1] (setting [5]) is recorded as “perform well”.
As for `CCCCCCCC(=O)[O-].[Na+]` [Sodium caprylate], the Effect result in data set [1] (setting [6]) is listed as “−”.
Turning to `CCCCCCCCOC1O[C@H](CO)[C@@H](O)[C@H](O)[C@H]1O` (stereo partly shown) [Octylglucopyranoside], the “performance as enhancer” value in data set [1] (rat, in vivo) is “some absorption enhancing properties”. Besides, the Effect entry in data set [1] (setting [3]) is recorded as “(+)”.
With `C[C@H](CCC(=O)NCCS(=O)(=O)O)[C@H]1CC[C@H]2[C@@H]3[C@H](O)C[C@@H]4C[C@H](O)CC[C@]4(C)[C@H]3C[C@H](O)[C@]12C` [Sodium taurocholate], in data set [1] (rat, in vivo), the Effect result is recorded as “+” and the “performance as enhancer” value was “effectively enhance insulin absorption in the lung”.
Consider `CCCCCCCCCC(=O)[O-].[Na+]` [Sodium caprate], for which the “improvement in absorption of insulin” value is on record as “Significant improvement” in data set [1] (insulin/sodium caprate 50/50 w/w (50% sodium caprate)), “Significant improvement” in data set [1] (insulin/sodium caprate 75/25 w/w (25% sodium caprate)), “intermediate” in data set [1] (insulin/sodium caprate 82.5/17.5 w/w (17.5% sodium caprate)) and “poor improvement” in data set [1] (insulin/sodium caprate 90/10 w/w (10% sodium caprate)). The Effect result in data set [1] (setting [3]) is recorded as “+”; in data set [1] (rats, inhaled powder, Enhancer:Insulin:lactose 10:90:0) it was “(+)”; in data set [1] (rats, inhaled powder, Enhancer:Insulin:lactose 17.5:82.5:0), “(+)”; in data set [1] (setting [6]), “+”. The “performance as enhancer” value in data set [1] (setting [5]) is on record as “perform well”. For the same compound, in data set [2] (16 mM sodium caprate, apical to basolateral), the “amount of insulin which passed across the monolayer, compared to absence of any enhancer” value is listed as “doubled”. Moreover, the “amount of marker (mannitol) which appears on the basolateral side” value in data set [2] (at least up to 16 mM sodium caprate, FIG. 8) is on record as “dependent upon the concentration of enhancer used”.
On to `CCCCCCCCCC(=O)[O-].[K+]` [Potassium caprate], for which, in data set [1] (rats, inhaled powder, Enhancer:Insulin:lactose 27:73:0), the Effect result is “+”. The “performance as enhancer” value in data set [1] (setting [5]) is given as “effective”.
As to `CCCCCCCCCCCCCC(=O)[O-].[Na+]` [Sodium myristate], in data set [1] (rats, inhaled powder, Enhancer:Insulin:lactose 30:70:0), the Effect result was “+”. In addition, the “performance as enhancer” value in data set [1] (setting [5]) is given as “perform well”.
Regarding `CCCCCCCCCC(=O)OC[C@H](COP(=O)([O-])OCC[N+](C)(C)C)OC(=O)CCCCCCCCC` [Didecanoylphospatidylcholine], the Effect result in data set [1] (rats, inhaled powder, Enhancer:Insulin:lactose 4:4:94) was “−”.
For the compound `C[C@H](CCC(=O)[O-])[C@H]1CC[C@H]2[C@@H]3[C@@H](O)C[C@@H]4C[C@H](O)CC[C@]4(C)[C@H]3CC[C@]12C.[Na+]` [Sodium ursodeoxycholate], the “performance as enhancer” value in data set [1] (rat, in vivo) is given as “effectively enhance insulin absorption in the lung”. Further, the Effect entry in data set [1] (setting [3]) is “+”.
As for `CC(=O)OC1CC2(C)C(CC(O)C3C4(C)CCC(O)C(C)C4CCC32C)C1=C(CCCC(C)C)C(=O)NCCS(=O)(=O)O` (stereo not shown) [Sodium taurodihydrofusidate], the “performance as enhancer” value in data set [1] (rat, in vivo) is reported as “effectively enhance insulin absorption in the lung”. Further, the Effect entry in data set [1] (setting [4]) is given as “+”.
